Each structure is given as a SMILES string.

This series is described as follows: in vitro. The conditions noted are these: human, hela cells, % viability.
Take `Cc1noc2nc(C3CCN(C(=O)C(C)C)CC3)cc(C(F)F)c12` [CBK285305]: the viability (in general, a read-out of living cells in per cent, often relative to untreated cells) at 28.5 h, 10 µM was 79.9%. As for `COc1cccc(CNc2ccc(C3c4ccsc4CCN3C(C)=O)cc2)c1` (centres unmarked) [CBK286443], the viability at 28.5 h, 10 µM came out at 109%. For the compound `O=C(c1cc(-c2ccncc2)nc2ccc(Cl)cc12)N1CCN(c2ccc([N+](=O)[O-])cc2)CC1` [CBK267748], the viability at 28.5 h, 10 µM was 83.8%. On to `O=C(Oc1n[nH]c2ccccc12)c1ccc(Cl)cc1` [CBK009976], for which the viability at 28.5 h, 10 µM came to 100%. As for `CC1CCCN(CC(O)c2ccc3c(c2)CCCN3C(=O)C2CC2)C1` (centres unmarked) [CBK282136], the figure is 100%; as for `O=[N+]([O-])c1ccccc1/C=C/CN1CCN(C/C=C/c2ccccc2)CC1` [CBK261864], 93%. The result for `CC(=O)Nc1cccc(-n2nnnc2SCC(=O)N2CCNC2=O)c1` [CBK305043] reads 88.5%; that for `COc1ccc(C2=CC(c3ccc(C(F)(F)F)cc3)n3nnnc3N2)cc1OC` (centres unmarked) [CBK296131], 117%; that for `CN(C)CCCNC(=O)c1cccc(Nc2cncc(-c3ccc(O)cc3)n2)c1` [CBK122669], 87.7%. The result for `Nc1ncnc2c1nnn2[C@@H]1O[C@H](CO)[C@H](O)C1O` (some centres unmarked) [CBK201228] reads 30%. Take `c1coc(CNc2ncc(-c3ccc(N4CCOCC4)cc3)n3ccnc23)c1` [CBK091220]: the viability at 28.5 h, 10 µM was found to be 102%. The result for `Cn1ncc(N2CCC(CNC(=O)c3ccc(F)cc3Cl)C2)cc1=O` (centres unmarked) [CBK306643] reads 97.1%. With `CCOc1ccc(CNc2ccc(N3CCOCC3)c(C(=O)O)c2)cc1OC` [CBK269192], the viability at 28.5 h, 10 µM came to 93%. As for `CCOc1ncccc1NC(=O)N(CC1CCOC1)C1CC1` (centres unmarked) [CBK305077], the figure is 94%; as for `O=C(NCc1cccnc1)/C(=N\O)c1ccccc1` [CBK288416], 102%. Take `CC(C)CC(=O)N1CCC(c2nnc3n2CCCCC3)CC1` [CBK284629]: the viability at 28.5 h, 10 µM turned out to be 83.2%. As to `O=C(c1ccsc1NS(=O)(=O)c1cc(Cl)sc1Cl)N1CCOCC1` [CBK042288], the viability at 28.5 h, 10 µM came to 92.5%. The result for `COc1ccc(CN2C(=O)CC(c3ccccc3)C2=O)cc1` (centres unmarked) [CBK002055] reads 99.4%; that for `Cc1ccc2nc(CN3CCC(CNc4ccccn4)C3)cc(=O)n2c1` (centres unmarked) [CBK306340], 83.7%; that for `Cn1c(-c2ccc(C(=O)O)cc2)cc2oc(-c3ccccc3)nc2c1=O` [CBK074957], 98%. The result for `Cc1nn(CC(=O)N2C(C)CCCC2C)c(=O)c2cc3occc3n12` (centres unmarked) [CBK283555] reads 80.8%; that for `O=C(Nc1ccc(Cl)cc1C(=O)O)c1ccccc1Cl` [CBK000171], 91.4%. The result for `CCOC(=O)c1ccc(NC(=O)C2CC(=O)NC(Nc3nc4ccccc4s3)=N2)cc1` (centres unmarked) [CBK264396] reads 100%; that for `COc1ccc(C(=O)N2CC[C@H]3NC(=O)N(c4ccc(F)cc4)C(=O)[C@H]32)cc1` [CBK289325], 86.9%; that for `CC(C)(CO)CCCn1cncc1-c1cnn(C2CCCCC2)c1` [CBK281779], 86.7%.

In the case of `COc1ccc(CO)cc1OCc1ccccc1` [CBK051334], the viability at 28.5 h, 10 µM was determined as 110%. In the case of `Cc1ccc(-n2c(C)c(C)c3c(NCCO)cnnc32)cc1` [CBK288162], the viability at 28.5 h, 10 µM turned out to be 101%. The result for `Cc1ccc(Nc2nc(N/N=C/c3ccccc3)nc(N3CCC(Cc4ccccc4)CC3)n2)cc1` [CBK262296] reads 76.7%; that for `C[C@@H](c1ccccc1)n1c(=O)[nH]c2ncc(-c3cccc4ccccc34)nc21` [CBK064710], 97%; that for `C=Cn1ncc(CN2CCC3(O)CCCCC3C2)c1C` (centres unmarked) [CBK283302], 94.5%. The result for `Cc1c(CNCCN2CCN(C)CC2c2ccccc2)cnn1C` (centres unmarked) [CBK304056] reads 98.8%; that for `CNCCOCC(O)CSc1ccccc1` (centres unmarked) [CBK262704], 100%; that for `CN(CC(=O)NCc1ccc(OCC(N)=O)cc1)C1CCCCC1` [CBK306331], 81.7%.

For `COc1ccc2c(c1)cc(C(=O)NCc1cncn1CC(C)C)n2C` [CBK307193], the viability at 28.5 h, 10 µM was 89.3%. As for `CN(C)CCCNC(=O)c1ccc(/C=N/O)[n+](C)c1` [CBK278284I], the viability at 28.5 h, 10 µM is 88.8%.

With `O=C(O)c1ccccc1SC(C[N+](=O)[O-])c1ccccc1Cl` (centres unmarked) [CBK097071], the viability at 28.5 h, 10 µM was 95.6%.

For the compound `COc1ccccc1OCC(=O)N1CCNC1=O` [CBK288201], the viability at 28.5 h, 10 µM is 93.8%. With `O=C(Cn1nnc2ccccc21)Nc1ccc(Cl)cn1` [CBK296068], the viability at 28.5 h, 10 µM stood at 97.9%. As for `CSc1ncc(Cl)c(C(=O)Nc2nc(-c3ccc(S(=O)(=O)N4CCOCC4)cc3)cs2)n1` [CBK269064], the viability at 28.5 h, 10 µM came to 102%. As for `COC(=O)C1=C(Cn2ccc(C(F)(F)F)n2)NC(=O)NC1c1cc(C)ccc1C` (centres unmarked) [CBK268792], the figure is 105%; as for `CC(C)c1ncc(CN2CCC(CC(=O)N3CCN(c4ccccc4)CC3)CC2)cn1` [CBK286048], 101%; as for `CCCCCCN1CCC2CN(CCCC(=O)c3ccc(F)cc3)CCN2C1=O` (centres unmarked) [CBK024890C], 99%. `O=C1NCCN1CCOc1nccnc1-c1ccc(F)cc1` [CBK106898]: the viability at 28.5 h, 10 µM worked out at 97.8%. As for `COc1cc(CN2CCC(Cc3ccccc3-c3ccccc3)(C(N)=O)CC2)cc(OC)c1` [CBK285912], the figure is 88.1%. On to `COCCNc1nccnc1-c1ccccc1CO` [CBK038010], for which the viability at 28.5 h, 10 µM was 108%.

For `CCn1c2ccccc2c2cc(NC(=O)CN(C)S(=O)(=O)c3ccc(C)cc3)ccc21` [CBK266756], the viability at 28.5 h, 10 µM was determined as 92.8%. In the case of `CC(=O)N[C@H](C(=O)N1CC[C@@H]2NC(=O)[C@@H](Cc3ccccc3)NC(=O)C3(C/C=C/C[C@@H]2C1)CCOCC3)[C@@H](C)O` [CBK292186], the viability at 28.5 h, 10 µM was determined as 96.9%. Regarding `CCCNc1cc(C)nc2cc(-c3ccc(OC)c(OC)c3)nn12` [CBK287805], the viability at 28.5 h, 10 µM is 88.2%.

On to `CCCn1c(SCC(=O)Nc2cc(C(C)(C)C)no2)n[nH]c1=O` [CBK295648], for which the viability at 28.5 h, 10 µM stood at 104%. As for `CCCn1nc(C)c(-c2cncn2CC(C)N2CCCCC2)c1C` (centres unmarked) [CBK281802], the figure is 95.7%; as for `O=C1CC2(CCC3C(C(=O)NC4CCCC4)C32)Oc2ccccc21` (centres unmarked) [CBK284922], 97.6%.

`Cc1ccccc1-c1noc(CNC(Cn2ccnc2)C(C)C)n1` (centres unmarked) [CBK307560]: the viability at 28.5 h, 10 µM worked out at 89.1%. As for `Nc1nc(CCN2CCOCC2=O)cs1` [CBK003792], the figure is 85.8%; as for `O=C(c1sc2cc(Cl)ccc2c1Cl)N1CCN(Cc2ccc3c(c2)OCO3)CC1` [CBK074431], 101%. The result for `COc1cc(-c2ccc(N)c3ccccc23)cc(OC)c1OC` [CBK084332] reads 83.5%; that for `CN1CCCc2ccc(S(=O)(=O)Nc3nc4ncccn4n3)cc21` [CBK305226], 85.7%. With `NS(=O)(=O)c1ccc(NC(=O)c2cccnc2)cc1` [CBK264488], the viability at 28.5 h, 10 µM was found to be 106%.

With `CCn1c(C)nc2cc(NC(=O)CC3CCCCO3)ccc21` (centres unmarked) [CBK281859], the viability at 28.5 h, 10 µM is 98.2%. As for `Cc1cccc(CCNC(=O)N2CCC(Cc3cnn(C)c3)C2)c1` (centres unmarked) [CBK305137], the figure is 110%; as for `O=C(NCC1(c2ccccc2F)CCOCC1)[C@@H]1C[C@@H]2C=C[C@H]1C2` [CBK281552], 91.6%. As for `Cc1cc(C)nc(N(C#N)CC(=O)N2c3ccccc3CCc3ccccc32)n1` [CBK266509], the figure is 112%; as for `CSCCCNC(=O)c1ccc2c(c1)nc(N1CC[C@H](O)C1)n2C` [CBK306807], 107%. As for `NS(=O)(=O)c1ccc(CNC(=O)c2cc(-c3cccnc3)nc3ccc(Br)cc23)cc1` [CBK267740], the figure is 96.9%; as for `Cc1[nH]c2ccc(CNC(=O)Cn3ccnc3C(C)C)cc2c1C` [CBK281540], 87.6%. In the case of `CC(=O)N1CC(C(=O)Nc2ccccc2Cc2ccccc2)Oc2ccccc21` (centres unmarked) [CBK297525], the viability at 28.5 h, 10 µM turned out to be 88.6%. As for `O=C(O)COCCn1cc(-c2ccc(Cl)cc2)cn1` [CBK021914], the figure is 84.5%; as for `O=C(CCn1cccn1)Nc1ccc(OC2CCCC2)cc1` [CBK281861], 87.1%. As for `N#Cc1cn(S(=O)(=O)c2cccc(C(F)(F)F)c2)nc1N` [CBK067225], the figure is 92.6%; as for `Cc1nc2n(CC#N)c3ccccc3n2n1` [CBK062670], 99.7%.

For `CC(=O)NC1CCN(c2nc(C(C)(C)C)nc3c2cnn3C)CC1` [CBK307431], the viability at 28.5 h, 10 µM worked out at 101%. As for `COc1cc(C(=O)N2CCCC3(CC(=O)c4ccc(C)cc4O3)C2)cc(OC)c1C` (centres unmarked) [CBK168239], the figure is 87.2%; as for `CC(=O)c1ccc(NC(=O)C2C3C=CC(C3=C(c3ccccc3)c3ccccc3)C2C(=O)O)cc1` (centres unmarked) [CBK265696], 98.4%; as for `COCC(=O)N1CCc2sccc2C1c1ccc(NCc2ccc(F)cc2)cc1` (centres unmarked) [CBK286445], 89.7%. As for `Cn1nc(C2CCCC2)cc1[C@H]1CN2CC[C@H]1C[C@@H]2CNC(=O)N1CCOCC1` [CBK288740], the figure is 83.4%; as for `CCCCSc1nnc(-c2ccc(Br)cc2)o1` [CBK027012], 117%. As for `CCN1CCCCC1CNC(=O)c1cc(C2CC2)n[nH]1` (centres unmarked) [CBK282205], the figure is 91.1%.

As to `CC(=O)Nc1ccc(-c2ccc(C(=O)NCc3ccc(S(C)(=O)=O)cc3)cn2)cc1` [CBK158860], the viability at 28.5 h, 10 µM worked out at 92.1%.

Consider `O=[N+]([O-])c1cnc(NS(=O)(=O)c2ccc(Br)cc2C(F)(F)F)s1` [CBK067541], for which the viability at 28.5 h, 10 µM turned out to be 99.6%.

As for `CCOc1cccc(-c2cncc(N(C)CCN(C)C)n2)c1` [CBK065977], the viability at 28.5 h, 10 µM was 102%. As for `Brc1ccc(-n2c(SC/C=C/c3ccccc3)nnc2-c2ccncc2)cc1` [CBK266257], the figure is 105%.

These data come from publication PMC12040169 (PLOS Biology, 2025).
